Legend:
[1] = molecular target: T1, 4-oxo-L-proline reductase (HsBDH2) (Homo sapiens, UniProt Q9BUT1); assay: ITC at […] °C, pH […] (number of sites fixed at one); also DSF; type: binding
T1 construct: gene BDH2

[2] = molecular target: T1, 4-oxo-L-proline reductase (HsBDH2); assay: ITC at […] °C, pH […] ([…] stoichiometry); also DSF and stopped-flow koff; type: binding

T1 sequence (Q9BUT1 whole entry): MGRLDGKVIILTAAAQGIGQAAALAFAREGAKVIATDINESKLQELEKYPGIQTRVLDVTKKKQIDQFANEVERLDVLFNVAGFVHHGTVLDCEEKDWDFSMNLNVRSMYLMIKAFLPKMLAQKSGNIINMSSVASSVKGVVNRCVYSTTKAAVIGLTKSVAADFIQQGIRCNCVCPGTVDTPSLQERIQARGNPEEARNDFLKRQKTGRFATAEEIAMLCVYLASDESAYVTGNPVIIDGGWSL

Kd [1] | Kd [2] | SMILES
29 µM | – | NC(=O)c1ccc[n+]([C@@H]2O[C@H](COP(=O)([O-])OP(=O)(O)OC[C@H]3O[C@@H](n4cnc5c(N)ncnc54)[C@H](O)[C@@H]3O)[C@@H](O)[C@H]2O)c1 [NAD^+]
– | 0.48 µM | NC(=O)C1=CN([C@@H]2O[C@H](COP(=O)(O)OP(=O)(O)OC[C@H]3O[C@@H](n4cnc5c(N)ncnc54)[C@H](O)[C@@H]3O)[C@@H](O)[C@H]2O)C=CC1 [NADH]

— article PMC11840923, “Kinetic and Thermodynamic Characterization of Human 4-Oxo-L-proline Reductase Catalysis” (Biochemistry, 2025)
